Test results taken from paper PMC3426363 (Pharmaceutical research, 2011).

Experiments:
UGT1A1 [1] = biological target: T1, UGT1A1 (Homo sapiens, UniProt P22309); experiment: UGT1A1 glucuronidation kinetics of flavonols; assay type: in vitro ADME; settings: for Ks: substrate inhibition constant
T1 sequence (P22309 26-533): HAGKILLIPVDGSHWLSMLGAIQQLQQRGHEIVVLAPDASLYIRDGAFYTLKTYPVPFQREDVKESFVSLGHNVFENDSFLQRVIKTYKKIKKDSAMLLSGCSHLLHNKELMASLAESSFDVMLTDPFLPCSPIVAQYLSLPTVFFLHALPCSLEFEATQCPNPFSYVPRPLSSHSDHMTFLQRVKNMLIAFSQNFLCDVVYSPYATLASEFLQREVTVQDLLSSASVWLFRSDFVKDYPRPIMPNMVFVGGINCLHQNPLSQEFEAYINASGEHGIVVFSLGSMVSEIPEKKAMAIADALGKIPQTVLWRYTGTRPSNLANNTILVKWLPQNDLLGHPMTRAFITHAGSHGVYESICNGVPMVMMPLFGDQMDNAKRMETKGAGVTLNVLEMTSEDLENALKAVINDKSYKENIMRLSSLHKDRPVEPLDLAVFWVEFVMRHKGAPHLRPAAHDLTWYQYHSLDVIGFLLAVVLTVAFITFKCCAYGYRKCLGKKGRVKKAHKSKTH

UGT1A3 [2] = biological target: T2, UGT1A3 (Homo sapiens, UniProt P35503); experiment: UGT1A3 glucuronidation kinetics of flavonols; assay type: in vitro ADME; settings: substrate inhibition constant
T2 sequence (P35503 29-534): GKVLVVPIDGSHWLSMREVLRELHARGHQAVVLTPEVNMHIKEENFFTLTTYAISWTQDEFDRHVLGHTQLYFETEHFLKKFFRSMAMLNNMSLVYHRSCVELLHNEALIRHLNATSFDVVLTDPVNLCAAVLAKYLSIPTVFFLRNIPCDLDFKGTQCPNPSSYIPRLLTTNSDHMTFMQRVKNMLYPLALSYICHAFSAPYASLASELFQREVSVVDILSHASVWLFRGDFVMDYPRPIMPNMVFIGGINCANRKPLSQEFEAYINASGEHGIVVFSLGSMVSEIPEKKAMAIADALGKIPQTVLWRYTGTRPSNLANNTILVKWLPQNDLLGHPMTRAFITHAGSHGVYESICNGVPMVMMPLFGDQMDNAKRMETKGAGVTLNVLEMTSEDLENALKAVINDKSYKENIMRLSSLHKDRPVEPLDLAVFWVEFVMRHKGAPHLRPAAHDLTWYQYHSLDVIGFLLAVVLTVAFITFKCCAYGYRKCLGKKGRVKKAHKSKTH

UGT1A7 = biological target: T3, UGT1A7 (Homo sapiens, UniProt Q9HAW7); experiment: UGT1A7 glucuronidation kinetics of flavonols; assay type: in vitro ADME; settings: formation of 3-O-glucuronide, substrate inhibition constant
T3 sequence (Q9HAW7 26-530): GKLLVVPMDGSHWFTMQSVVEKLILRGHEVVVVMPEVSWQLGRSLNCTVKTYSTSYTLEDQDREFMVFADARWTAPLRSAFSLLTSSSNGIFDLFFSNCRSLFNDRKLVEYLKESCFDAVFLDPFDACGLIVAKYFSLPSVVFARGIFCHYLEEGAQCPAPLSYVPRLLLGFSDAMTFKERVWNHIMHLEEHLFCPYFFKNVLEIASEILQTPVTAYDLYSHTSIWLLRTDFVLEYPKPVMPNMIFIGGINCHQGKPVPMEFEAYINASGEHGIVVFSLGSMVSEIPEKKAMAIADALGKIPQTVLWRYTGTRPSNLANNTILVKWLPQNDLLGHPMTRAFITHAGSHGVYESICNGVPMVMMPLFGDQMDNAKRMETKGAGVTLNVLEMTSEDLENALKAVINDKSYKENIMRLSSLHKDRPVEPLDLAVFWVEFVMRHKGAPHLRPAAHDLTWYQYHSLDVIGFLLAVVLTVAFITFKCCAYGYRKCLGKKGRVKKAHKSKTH

UGT1A8 = biological target: T4, UGT1A8 (Homo sapiens, UniProt Q9HAW9); experiment: UGT1A8 glucuronidation kinetics of flavonols; assay type: in vitro ADME; settings: formation of 3-O-glucuronide
T4 sequence (Q9HAW9 26-530): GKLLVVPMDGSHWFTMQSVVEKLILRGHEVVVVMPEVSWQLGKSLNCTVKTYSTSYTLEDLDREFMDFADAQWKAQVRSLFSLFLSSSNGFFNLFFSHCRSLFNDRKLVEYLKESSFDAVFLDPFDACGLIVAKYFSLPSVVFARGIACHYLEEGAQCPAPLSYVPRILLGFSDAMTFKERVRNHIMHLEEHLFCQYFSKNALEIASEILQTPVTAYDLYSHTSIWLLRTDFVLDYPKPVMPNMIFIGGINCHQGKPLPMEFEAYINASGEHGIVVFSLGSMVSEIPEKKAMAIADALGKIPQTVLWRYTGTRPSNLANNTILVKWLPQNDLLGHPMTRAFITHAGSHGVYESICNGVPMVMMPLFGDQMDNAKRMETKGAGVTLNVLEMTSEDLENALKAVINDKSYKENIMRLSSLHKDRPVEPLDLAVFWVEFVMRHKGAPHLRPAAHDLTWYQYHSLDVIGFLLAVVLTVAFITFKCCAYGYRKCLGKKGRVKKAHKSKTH

UGT1A9 [3] = biological target: T5, UGT1A9 (Homo sapiens, UniProt O60656); experiment: UGT1A9 glucuronidation kinetics of flavonols; assay type: in vitro ADME
T5 sequence (O60656 26-530): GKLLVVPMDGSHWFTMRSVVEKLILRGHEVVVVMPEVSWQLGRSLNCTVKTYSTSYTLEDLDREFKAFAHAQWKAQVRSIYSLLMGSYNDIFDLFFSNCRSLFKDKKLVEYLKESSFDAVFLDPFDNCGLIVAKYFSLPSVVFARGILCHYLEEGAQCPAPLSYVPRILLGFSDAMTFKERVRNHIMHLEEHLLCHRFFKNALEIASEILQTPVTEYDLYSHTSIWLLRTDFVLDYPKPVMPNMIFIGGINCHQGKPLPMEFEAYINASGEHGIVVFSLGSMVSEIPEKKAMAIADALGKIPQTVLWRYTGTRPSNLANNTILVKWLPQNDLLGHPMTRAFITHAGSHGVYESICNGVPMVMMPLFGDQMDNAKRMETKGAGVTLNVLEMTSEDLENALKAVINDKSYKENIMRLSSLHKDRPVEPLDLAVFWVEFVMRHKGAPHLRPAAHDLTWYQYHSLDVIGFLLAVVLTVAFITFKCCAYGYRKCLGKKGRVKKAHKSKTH

UGT1A10 = biological target: T6, UGT1A10 (Homo sapiens, UniProt Q9HAW8); experiment: UGT1A10 glucuronidation kinetics of flavonols; assay type: in vitro ADME; settings: formation of 3-O-glucuronide, substrate inhibition constant
T6 sequence (Q9HAW8 26-530): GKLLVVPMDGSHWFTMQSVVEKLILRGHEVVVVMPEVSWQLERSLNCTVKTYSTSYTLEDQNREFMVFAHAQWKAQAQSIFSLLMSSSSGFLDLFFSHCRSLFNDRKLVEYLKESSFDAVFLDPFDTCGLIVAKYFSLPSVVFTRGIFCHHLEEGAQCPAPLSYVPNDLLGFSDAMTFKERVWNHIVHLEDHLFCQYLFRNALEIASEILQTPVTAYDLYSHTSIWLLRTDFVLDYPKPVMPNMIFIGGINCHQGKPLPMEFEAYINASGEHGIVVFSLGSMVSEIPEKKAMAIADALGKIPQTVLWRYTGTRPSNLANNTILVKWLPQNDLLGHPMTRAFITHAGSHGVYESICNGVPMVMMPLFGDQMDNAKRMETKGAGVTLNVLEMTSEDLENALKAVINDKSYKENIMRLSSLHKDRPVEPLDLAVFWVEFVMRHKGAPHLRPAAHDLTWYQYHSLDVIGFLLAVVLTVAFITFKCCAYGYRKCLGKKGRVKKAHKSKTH

UGT1A9 [4] = biological target: T5, UGT1A9; settings: ref 32 (Chen et al.); cited from earlier work
UGT1A3 [5] = biological target: T2, UGT1A3; settings: published observation; cited from earlier work
UGT1A1 [6] = biological target: T1, UGT1A1; experiment: Inhibition of UGT1A1-mediated glucuronidation of 3-hydroflavone; assay type: biochemical; settings: 40 µM inhibitor; data not shown

## O=c1c(O)c(-c2ccccc2)oc2cc(O)cc(O)c12 [3,5,7THF, 3,5,7-trihydroxyflavone]
UGT1A1 [1]; formation of 3-O-glucuronide
  Vmax: 0.82 nmol/mg/min
  Ks: 2.64 ± 0.89 µM
UGT1A1 [1]; formation of 7-O-glucuronide
  Vmax: 4.59 nmol/mg/min
  Ks: 1.22 ± 0.19 µM
UGT1A3 [2]; formation of 3-O-glucuronide
  Ks: 17.86 ± 6.33 µM
UGT1A3 [2]; formation of 7-O-glucuronide
  Ks: 9.95 ± 9.16 µM
UGT1A7
  Ks: 55.75 ± 7.27 µM
UGT1A8
  Vmax: 3.89 nmol/mg/min
UGT1A8; substrate inhibition constant
  Ks: 37.28 ± 10.12 µM
UGT1A9 [3]; formation of 3-O-glucuronide
  Km: 0.68 ± 0.16 µM
  Vmax: 7.41 ± 0.89 nmol/mg/min
UGT1A9 [3]; formation of 3-O-glucuronide, substrate inhibition constant
  Ks: 7.43 ± 2.12 µM
UGT1A9 [3]; formation of 7-O-glucuronide
  Km: 0.54 ± 0.08 µM
  Vmax: 2.56 ± 0.10 nmol/mg/min
UGT1A10
  Ks: 73.48 ± 17.82 µM

## O=c1c(O)c(-c2ccc(O)c(O)c2)oc2cc(O)cc(O)c12 [quercetin, 3,5,7,3’,4’-pentahydroxyflavone]
UGT1A9 [4]
  regioselectivity of glucuronidation: 3-O-glucuronidation was most efficient with the highest CLint value

## COc1ccc(C2CC(=O)c3c(O)cc(O)cc3O2)cc1O (centres unmarked) [hesperetin, 4'-methoxy-3',5,7-trihydroxyflavanone]
UGT1A3 [5]
  glucuronide generated: only 7-O-glucuronide was generated

## O=c1c(O)c(-c2ccc(O)cc2)oc2cc(O)ccc12 [3,7,4’THF, 3,7,4’-tryhydroxyflavone]
UGT1A1 [1]; formation of 3-O-glucuronide
  Ks: 5.41 ± 0.93 µM
UGT1A1 [1]; formation of 7-O-glucuronide
  Ks: 3.53 ± 0.86 µM
UGT1A1 [6]
  inhibition of glucuronidation of 3-hydroflavone by UGT1A1: completely inhibited
